From article PMC6630837 (Pharmaceuticals, 2019)

Columns and labels:
[1] = LogD7.4 determination (octan-1-ol/phosphate buffer, LC-MS); assay type: physicochemical; settings: octan-1-ol/phosphate buffer, pH 7.4, octan-1-ol/phosphate buffer pH 7.4, 25 °C; read-out: Log D7.4 (partition coefficient at pH 7.4)
Method: LogD7.4 determination. The in-silico prediction tool ALOGPS [4] was used to estimate the octanol-water partition coefficients (log P) of the compounds. […] For each category, two different ratios (volume of octan-1-ol to volume of buffer) were defined as experimental parameters (Table 2).
Equal amounts of phosphate buffer (0.1 M, pH 7.4) and octan-1-ol were mixed and shaken vigorously for 5 min to saturate the phases. The mixture was left until separation of the two phases, and the buffer was retrieved. Stock solutions of the test compounds were diluted with buffer to a concentration of 1 μM. For each compound, three determinations per octan-1-ol:buffer ratio were performed in different wells of a 96-well plate. The respective volumes of buffer-containing analyte (1 μM) were pipetted to the wells and covered by saturated octan-1-ol according to the chosen volume ratio. […] The aqueous phase was transferred to a 96-well plate for analysis by liquid chromatography-mass spectrometry (LCMS, see below).
Results are presented as the mean ± SD of three independent experiments.
LC-MS measurements. […] The system was controlled with the Agilent MassHunter Workstation Data Acquisition software (version B.01.04). The column used was an AtlantisR T3 C18 column (2.1 × 50 mm) with a 3 μm-particle size (Waters Corp., Milford, MA, USA). The mobile phase consisted of eluent A: 10 mM ammonium acetate, pH 5.0 in 95:5, H2O:MeCN; and eluent B: MeCN containing 0.1% formic acid. The flow rate was maintained at 0.6 mL/min. […] MS parameters such as fragmentor voltage, collision energy, and polarity were optimized individually for each drug, and the molecular ion was followed for each compound in the multiple reaction monitoring mode. The concentrations of the analytes were quantified by the Agilent Mass Hunter Quantitative Analysis software (version B.01.04).

[2] = tested on: human epithelial colorectal adenocarcinoma (Caco-2) cells; experiment: Cell viability (MTT) assay in Caco-2 cells; assay type: cell-based; settings: at 100 μM
Method: (§1) Cell viability assay in human epithelial colorectal adenocarcinoma (Caco-2) and human liver hepatocellular (HepG2) cells. Caco-2 and HepG2 Cells were cultured in DMEM-Dulbecco’s modified Eagle’s medium (Sigma-Aldrich) supplemented with 10% (v/v) inactivated fetal bovine serum (PAA Laboratories GmbH), 2 mM L-glutamine (Sigma-Aldrich), 100 U/mL penicillin and 100 μg/mL streptomycin (Sigma-Aldrich), in a humidified incubator at 37 °C with a 5% CO2 atmosphere. Cells (3 × 10^4 cells/well) were seeded into 96-well plates and incubated at 37 °C in 5% CO2 atmosphere. After 24 h, compounds were added at different concentrations (0.1–100 μM) and incubated in the same conditions. DMSO controls were performed to evaluate a possible solvent cytotoxicity, while pure DMSO was used as a cytotoxic drug. After the established incubation time with compounds, MTT (5 mg/mL) in PBS (Sigma-Aldrich) was added (10 μL) to each well. After 3 h incubation at 37 °C, in 5% CO2, the supernatant was removed. The formazan crystals were solubilized using ethanol/DMSO (1:1) (100 μL), and the absorbance values were determined at 570 nm on the microplate reader Victor3 from PerkinElmer Life Sciences.

[3] = Cell viability (MTT) assay in Caco-2 cells; assay type: cell-based, human; settings: human; Caco-2 cells, 0.1 μM to 100 μM; read-out: IC50 (cytotoxicity)
Method: as §1

[4] = target: T1, butyrylcholinesterase (BuChE) (Equus caballus, UniProt P81908); experiment: biochemical; settings: 100 µM compound
T1 construct: (BuChE, equine serum); from tissue; host or cells: equine serum
Method: Experimental procedures for cholinesterase inhibition a s sa y s. For cholinesterase inhibition tests (acetylcholinesterase (AChE, electrophorus
el ec t r ic u s) a n d b ut yr ylcholinesterase (BuChE, equine serum), the Ellman’s cholorimetric assay1 was followed, with minor modifications. DMSO
was kept within 1.25% cuvette concentration. The chromogenic agent DTNB [5,5’-dithiobis(2-nitrobenzoic acid)] was fixed at 0.975 mM
con centration; 0. 1 M phosphate buffer (pH 8. 0) was employed, T = 25 °C, and the reaction was monitored for 125 s. […]
of inhibition, the substrate concentration (acetylthiocholine iodide for AChE; S- butyr ylthiocholine iodide for BuChE) was fixed at 29 µM for
AChE and at 18.2 µM concentration for BuChE.
Lineweaver-Burk plot (or double reciprocal plot, 1/V vs . 1/ [S ]) wa s u se d for estimating both, the mode of inhibition and the inhibition constants […]
Competitive inhibition (inhibitor only bonds the free enzyme):
KKiiii = [II ]KKMM iiaaaa
M i xe d inhibition (inhibitor binds both, the free and the complexed enzyme) :
Uncompetitive (the inhibitors only binds the complexed enzyme):
N on -competitive (inhibitor binds both the free enzyme and the complexed enzyme with equal affinity) :
Table S3. […]
of the synthesized flavone analogues at 100 µ M.
C omp ou n d N o. AChE B uChE

[5] = tested on: SH-SY5Y human neuroblastoma cells; experiment: Neuroprotection against H2O2-induced toxicity, MTT cell viability assay; assay type: cell-based; settings: 50 μM compound, 100 μM H2O2, 24 h, 37 °C
Source text: Neuroprotective activity assays against H2O2-induced toxicity. On the basis of previously described protocols, the flavones and analogues herein synthesized were screened for their neuroprotective effects against H2O2-induced oxidative stress and neuronal damage in SH-SY5Y human neuroblastoma cells by means of a thiazolyl blue tetrazolium bromide (MTT) reduction-based cell viability assay.
Neuroprotective assays in human neuroblastoma (SH-SY5Y) cells. […] Differences were considered significant when P < 0.05.

T1 sequence (P81908 whole entry): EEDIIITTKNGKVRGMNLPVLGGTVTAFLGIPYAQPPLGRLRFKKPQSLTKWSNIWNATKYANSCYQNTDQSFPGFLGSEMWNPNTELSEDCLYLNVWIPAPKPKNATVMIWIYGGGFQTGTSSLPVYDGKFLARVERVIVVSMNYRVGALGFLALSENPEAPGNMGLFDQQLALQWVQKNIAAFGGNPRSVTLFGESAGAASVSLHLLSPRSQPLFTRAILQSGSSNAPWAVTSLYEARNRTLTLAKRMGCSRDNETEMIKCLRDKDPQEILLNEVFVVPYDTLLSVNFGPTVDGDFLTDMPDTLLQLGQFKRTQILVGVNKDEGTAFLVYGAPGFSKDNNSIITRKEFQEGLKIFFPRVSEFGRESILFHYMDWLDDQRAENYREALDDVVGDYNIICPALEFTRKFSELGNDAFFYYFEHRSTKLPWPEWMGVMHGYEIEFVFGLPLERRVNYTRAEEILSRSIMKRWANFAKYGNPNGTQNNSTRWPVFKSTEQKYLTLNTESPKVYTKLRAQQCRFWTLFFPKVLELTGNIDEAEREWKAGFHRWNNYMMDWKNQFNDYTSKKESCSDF

O=c1cc(-c2ccc(N3CCOCC3)cc2)oc2c([C@@H]3O[C@H](CO)[C@@H](O)[C@H](O)[C@H]3O)c(O)cc(O)c12 [Compound 19, 8-(β-D-Glucopyranosyl)-5,7-dihydroxy-4′-(morpholin-4-yl)flavone]
logD [1]: 1.8 ± 0.2
Cytotoxicity towards Caco-2 cells [2]: did not show any cytotoxicity
IC50 [3]: ≥ 100 µM
BuChE inhibitory efficacy (percentage of inhibition) [4]: n.i .
Neuroprotective effect against H2O2-induced toxicity (MTT cell viability) [5]: able to produce statistically significant differences when compared to H2O2 controls
Neuroprotective effect against H2O2-induced toxicity (MTT cell viability) ([5]; listed as 37): fully rescued
